Results: paper PMC12049818, “Identification of NUV-244 as a PNPLA3 I148M degrading small molecule” (iScience, 2025)

Assays:
[1] = biological target: T1, PNPLA3 I148M (Homo sapiens, UniProt Q9NST1, I148M); experiment: Western blot anti-PNPLA3, Huh7 PNPLA3 I148M; assay type: cell-based; parameters: host or cells: Huh7; conditions: 5µM; 24h; two independent Western Blots, Mean +/- Stdev
T1 sequence (Q9NST1 1-481 I148M): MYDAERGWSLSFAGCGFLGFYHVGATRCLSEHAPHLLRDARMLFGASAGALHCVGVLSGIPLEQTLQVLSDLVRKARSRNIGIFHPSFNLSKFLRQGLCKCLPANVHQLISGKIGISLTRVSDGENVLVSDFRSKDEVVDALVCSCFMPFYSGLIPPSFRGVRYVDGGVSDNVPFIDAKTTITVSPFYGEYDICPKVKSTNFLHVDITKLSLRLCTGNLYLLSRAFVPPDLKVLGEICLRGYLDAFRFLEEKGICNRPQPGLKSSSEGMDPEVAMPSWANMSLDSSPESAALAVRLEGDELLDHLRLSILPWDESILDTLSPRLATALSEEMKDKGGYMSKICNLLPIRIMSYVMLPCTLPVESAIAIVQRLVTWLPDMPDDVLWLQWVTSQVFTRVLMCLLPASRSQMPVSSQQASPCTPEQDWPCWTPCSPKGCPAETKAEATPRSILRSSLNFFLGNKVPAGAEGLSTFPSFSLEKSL
Description: (§1) For SDS-PAGE and subsequent western blotting cells were harvested in 1x lysis buffer (50 mM Tris-Cl, pH 7.5, 150 mM NaCl, 1 mM EDTA, 1% Triton X-100) supplemented with complete mini protease inhibitor cocktail (Roche). Total protein concentration of samples was determined with a Bicinchoninic Acid (BCA) protein assay. Cell lysates were boiled for 10 min at 99°C with 1x NuPAGE LDS Sample Buffer and loaded onto a 4-12% Tris-Glycine SDS-PAGE gel. For immunoblotting proteins were transferred to a nitrocellulose membrane (0.2 μm pore size, Schleicher & Schuell) and blocked with Intercept (PBS) Blocking buffer (Licor), incubated with primary antibodies anti-PNPLA3 (1:500, C-8 Santa Cruz, SC-390252), anti-PNPLA3 (1:1000, Millipore, MABS2174) and anti-HSP90 (1:1000, Cell Signaling, #4877), and subsequently incubated with secondary antibodies IRDye 680 or IRDye 800 (1:2000; LI-COR Biosciences). Infrared signal was detected using the Odyssey imaging system (Licor). […]
(§2) a. Huh7, PNPLA3 I148M b. Huh7, PNPLA3 I148M-tagRFP […]
(§3) control NUV-244 control NUV-244
(§4) Supplemental Fig. 9: Western Blot NUV-244 a. […] PNPLA3 bands at 53kDa (unmodified in a.) or 80 kDa (PNPLA3 I148M-tagRFP) were quantified (signal above local background, normalized to loading control using LICOR Odyssey CLx / Image Studio) on two independent Western Blots and percent of intensity compared to DMSO controls calculated (Mean +/ - Stdev). […]

[2] = biological target: T2, PNPLA3 I148M-tagRFP (Homo sapiens, UniProt Q9NST1, I148M); experiment: Western blot anti-PNPLA3, Huh7 PNPLA3 I148M-tagRFP; assay type: cell-based; conditions: 5µM, 24h
T2 construct: host or cells: Huh7
T2 sequence (Q9NST1 1-481 I148M): T1 sequence (Q9NST1 1-481 I148M)
Description: as §1, §2, §3, §4

[3] = test system: Huh7 cells; experiment: Incucyte growth curves, Huh7; assay type: cell-based, human; conditions: 1μM or 5μM; compared to DMSO
Description: Huh7, Huh7 PNPLA3 I148M, Huh7 PNPLA3, Hep3b and LX-2 cells were seeded at a concentration of 1000 cells/well in 60 μl of growth medium on 384-well microtiter plates (Revvity, Waltham, MA, USA, PhenoPlate 384-well microplate, #6057308) and stored in a 37°C incubator with 5% CO2 and 95% humidity overnight. Next day cells were treated with DMSO as control (1% final concentration) or compound (1μM or 5μM final concentration) and cell density was recorded in the Incucyte® life cell imager (Sartorius, Göttingen, Germany) every 4 hours over a period of 5 days. Growth curves were generated by monitoring confluence over time. Proliferative capacity of PNPLA3 I148M-expressing cells was compared to control cells, and the restoration of proliferative fitness was analyzed.

Cc1cccc(Cc2nc(C)c(C(=O)Nc3cc(O)ccc3Cl)s2)c1 [NUV-244]
PNPLA3 band, percent of intensity compared to DMSO controls [1]: 67+/-12% | PNPLA3 band intensity printed on the blot shown (DMSO 100%) ([2]; single blot shown in Fig. S9b): 72% | PNPLA3 band, percent of intensity compared to DMSO controls ([2]; two independent Western Blots, Mean +/- Stdev): 46+/-4% | effect on proliferative capacity, Huh7 [3]: no effects
